# Measurements taken from patent US11672786B2, “Methods of treating diseases associated with repeat instability” (The Hospital for Sick Children, priority 2016, dated 2023).
# Assays:
# [1] = tested on: long (CTG)20 slip-outs from (CAG)30●(CTG)50; assay: band-shift NA-DNA binding, long (CTG)20 slip-out; design: species or system human; settings: NA 0.15-50 μM, 4% polyacrylamide gel
# Text: (§1) FIG. 2 are the results of experiments showing that NA binds to long CAG slip-outs. […] The (CAG)n DNA sequence (left) can fold into an hairpin structure involving mismatched A-A pair flanking C-G base pairs (middle). NA molecules can intercalate into the DNA helix, with the 2-amino-1,8-naphthyridine moiety (in red) hydrogen bonding to guanine and 8-azaquinolone moiety (in blue) hydrogen bonding to adenine. […] Long slip-outs extruded as a single slip-out from a fully base-paired backbone of (CTG)n●(CAG)n, as described (Pearson et al., 2002, Nuc. Acids Res., 30:4534-47). DNAs were mixed with increasing concentrations of NA (0.15 μM, 0.75 μM, 7.5 μM and 50 μM) and resolved on 4% polyacrylamide gels. All lanes are from the same gel, and they were separated for clarity. NA-DNA complexes are shown by brackets, free DNA is indicated by arrowheads. […] The relative migration was measured for the linear and the three slip-outs substrates as the ratio of the migration distance of each NA-DNA complex to the migration distance of the free DNA. The migration distance was measured from the well to a consistent center point of each band. […]
# [2] = tested on: transgene transcript in the CAG-direction, HT1080-(CAG)850 cells; assay: transgene mRNA quantification by quantitative RT-PCR; type: cell-based, human; settings: NA 50 μM, 72 hr
# Text: FIG. 5 are results from experiments showing that NA induces CAG contractions in HT1080-(CAG)850 cells, independent of proliferation, dependent upon rCAG transcription. […] Panel B of FIG. 5 are histograms showing repeat length distributions in HT1080-(CAG)850 cells. Frequency distribution of unstable alleles is shown by gray bars. Frequency of stable alleles is shown by black bars. To facilitate comparisons, a dashed line indicates the unchanged CAG size. Allele lengths are grouped in bins spanning 50 repeats. […] More than 50 alleles were sized for each group. P-value was calculated by chi-square test (Table 2). […] P-value was calculated by Student's t-test. […] Quantitative reverse transcription (RT)-PCR was performed using TaqMan Gene Expression assays. […]
# RNA was harvested from the HT1080-(CAG)850 cells at 72 hr after adding or not adding NA using the RNeasy Plus Micro Kit (Qiagen). Total RNA was primed with random hexamers and reverse transcribed with Superscript III (Life Technologies, Carlsbad, Calif.), followed by treatment with RNase H. Quantitative reverse transcription (RT)-PCR was performed using TaqMan Gene Expression assays or PrimeTime qPCR assays on an ABI PRISM 7900HT Sequence Detection System (Life Technologies) and the primer sequences shown in Table 1. […] The results were statistically analyzed using paired t-tests. […]
# [3] = tested on: clustered short slip-outs on (CAG)50●(CTG)50 (S-DNA); assay: band-shift NA-DNA binding, clustered short slip-outs (S-DNA); design: species or system human; settings: NA 0.15-50 μM, 4% polyacrylamide gel
# Text: as §1
# [4] = tested on: transcription across the CAG transgene, R6/2 striatum; assay: qRT-PCR of CAG transgene transcription in R6/2 striatum; type: in vivo, mouse; settings: NA-treated vs. PBS-treated R6/2 striatum
# Procedure: Strand specific RT-PCR (1 weeks). AttB-PhiC31 system have been widely used for single copy integration. Panel B of FIG. 16 was determined by quantitative real-time reverse transcriptase (qRT)-PCR and normalized to U6 RNA, expressed as the ratio of NA-treated vs. PBS-treated R6/2 striatum. Data are indicated as the mean±SD of triplicates.
substance,measurement,setting,value
naphthyridine-azaquinolone,NA binding (band-shift),[1],not bound
same,effect on RNA transcript levels of transgene,[2],did not affect transcription of the CAG-repeats containing transcript
same,NA binding (band-shift),[3],can bind NA to a limited degree
same,effect on transcription across the CAG transgene,[4],does not affect transcription
